Measured values as given in PMC9114433 (Frontiers in Chemistry, 2022).
“And” between values parts separate entries of the source, which are not always exact repeats. Identical values can stand only once. Like-named read-outs stand apart in the source and are kept apart here.

How the values were obtained:
hHAO1 [1] = biological target: T1, hHAO1 (Homo sapiens, UniProt Q9UJM8); assay: Amplex Red fluorescence hydrogen peroxide activity assay; assay type: biochemical; design: A hHAO1 construct, encoding residues Met1-Ser368, with an engineered N-terminal His6-tag; His6 (N); made in house; host or cells: E. coli BL21 (DE3); settings: for Km: substrate titration, 30 nM hHAO1; for inhibition mode with respect to glycolate: glycolate 0–500 µM, compound 0–1 mM, best fitting model in GraphPad Prism; for Vmax, Best-fit, 1 mM: Vmax in the presence of 1 mM compound, reaction rate as µM; for LLEAT (Astex lipophilic ligand efficiency score): from hHAO1 IC50; for fold increase in potency: relative to parent fragment scaffold (fragment 1 for 7, 8; fragment 2 for 9–12); for 95% CI α / α (Best-fit): mixed model inhibition fit; for 95% CI α: 95% confidence interval; for α (Best-fit): ratio between αKi (enzyme-substrate complex) and Ki (free enzyme)
T1 sequence (Q9UJM8 1-368): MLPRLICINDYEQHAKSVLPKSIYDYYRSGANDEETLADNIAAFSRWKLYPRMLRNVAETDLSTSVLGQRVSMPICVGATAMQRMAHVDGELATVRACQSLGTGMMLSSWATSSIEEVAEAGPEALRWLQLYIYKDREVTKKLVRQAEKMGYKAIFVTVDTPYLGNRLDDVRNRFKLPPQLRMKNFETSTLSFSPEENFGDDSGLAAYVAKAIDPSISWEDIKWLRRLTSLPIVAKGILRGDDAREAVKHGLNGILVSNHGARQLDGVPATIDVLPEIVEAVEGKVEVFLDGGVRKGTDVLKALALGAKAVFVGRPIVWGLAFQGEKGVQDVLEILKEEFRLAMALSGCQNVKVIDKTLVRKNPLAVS
Method: hHAO1 activity in vitro was determined using the Amplex Red fluorescence hydrogen peroxide assay (Sigma Aldrich). […] The assay buffer contained 50 mM sodium phosphate, pH 7.4, 200 mM KCl, 2 mM MgCl2, and 0.01% TritonX. Determination of suitable assay parameters is described in the Supplementary Material. […] Following 10 min incubation at room temperature, 10 µl/well of Amplex Red reagent was added. […] All reactions were performed in technical triplicates for two different preparations of hHAO1. Reaction rate, defined as total H2O2 produced by the hHAO1 reaction, was determined from the H2O2 standard curve. […] This value is defined as the […] the inhibition constant for the free enzyme (Ki) and the inhibition constant for the enzyme-substrate complex (αKi) and can be related to the initial velocity (V0), substrate concentration ([S]), inhibitor concentration ([I]), and other kinetic parameters (Km, Vmax, Ki) as follows: V0 = Vmax [S]/(Km (1 + [I]/Ki) + [S](1 + [I]/(α∗Ki))). […]
6.2 Establishing parameters for Amplex Red activity assay
HAO1 activity was measured by coupling production of H2O2 by hHAO1 with the H2O2-dependent conversion of Amplex Red to its fluorescent product resorufin by […] peroxidase (Figure S7A).
To determine an incubation period resulting in measurements being made at initial rate conditions that also generated sufficient fluorescence signal, activity of 30 nM hHAO1 in the presence of 30 μM glycolate was measured every 1.5 minutes for a period of 60 minutes ([…]).
To confirm recombinant hHAO1 used in this work was active, the reaction rate of 30 nM hHAO1 was measured across a range of glycolate (Figure S7C) and 2-hydroxypalmitate (Figure S7D) concentrations.
(1 picture or pasted object on this page, not shown here)
Figure S8: Set-up of hHAO1 Amplex Red activity assay. (A) Schematic showing how hHAO1 activity is measured using the Amplex Red assay. (B) Plot of reaction rate (hydrogen peroxide […], µM) of 30 nM hHAO1 over time (minutes) in the presence of 30 µM glycolate. (C) Plot of relative fluorescence versus hydrogen peroxide concentration showing the standard curve fitted within the linear range of the Amplex Red reagent. (D) Michaelis-Menten plot of glycolate concentration versus reaction rate for 30 nM hHAO1. Inset: chemical structure of glycolate. (E) Michaelis-Menten plot of 2-hydroxypalmitate concentration versus reaction rate for 30 nM hHAO1. Inset: chemical structure of 2-hydroxypalmitate.

[2] = biological target: flavin dehydrogenase domain of yeast flavocytochrome b2; design: method as in Chen et al., 2012; settings: ref Chen et al., 2012; cited from earlier work
HAO = test system: HAO; design: method as in ref Chen et al., 2012; Martin-Higueras, Luis-Lima, and Salido 2016; settings: published kinetics against mGO, rat LCHAO, yeast flavocytochrome b2, hHAO1; ref Chen et al., 2012; Martin-Higueras, Luis-Lima, and Salido 2016; cited from earlier work
mGO = test system: mGO; design: method as in ref Martin-Higueras, Luis-Lima, and Salido 2016; Moya-Garzón et al., 2018; settings: purified mGO; ref Martin-Higueras, Luis-Lima, and Salido 2016; Moya-Garzón et al., 2018; cited from earlier work
[3] = test system: rat LCHAO (equivalent to hHAO2); design: method as in Chen et al., 2012; settings: ref Chen et al., 2012; cited from earlier work
hHAO1 [4] = biological target: T1, hHAO1; settings: read-out: Km (substrate), published value; ref Wang et al. 2016; cited from earlier work
[5] = 30 nM hHAO1, 30 µM glycolate, log(inhibitor) vs response fit, read-out: IC50 (Best-fit)
[6] = 30 µM glycolate, 95% confidence interval of fit, read-out: 95% CI IC50
[7] = 95% confidence interval of fit, read-out: 95% CI Ki
[8] = compound 0–1 mM vs glycolate 0–500 µM, read-out: Ki (Best-fit)
[9] = at 1 mM compound, glycolate titration

CCCCCCCCCCCCCCC(O)C(=O)O (centres unmarked) [2-hydroxypalmitate]
fold higher Km (hHAO1 [1]; relative to glycolate): 100 fold
Km (hHAO1 [1]; read-out: Km apparent (substrate)): 1200 ± 400 µM

O=C(O)c1nnsc1Sc1ccc(Cl)cc1 [CCPST, 4-carboxy-5-[(4-chlorophenyl)sulfanyl]-1,2,3-thiadiazole]
IC50 [2]: 6 µM
inhibition mode (HAO): non-competitive inhibition mode
IC50 (mGO): 43 to 198 µM
IC50 [3]: 3.6 µM
inhibition mode with respect to glycolate (hHAO1 [1]): competitive inhibition mode

O=C(NO)c1n[nH]c2ccccc12 [Compound 7]
IC50 (hHAO1 [1]; [5]): 153 µM
IC50 (hHAO1 [1]; [6]): 110 to 215 µM
Ki (hHAO1 [1]; [7]): 56.7 to 64.2 µM
Vmax, Best-fit, 1 mM (hHAO1 [1]): 47.76 µM
Ki (hHAO1 [1]; [8]): 60.4 µM
LLEAT (Astex lipophilic ligand efficiency score) (hHAO1 [1]): 0.40 kcal/mol
fold increase in potency (hHAO1 [1]): 5 fold

NCCNC(=O)c1n[nH]c2ccccc12 [Compound 8]
IC50 (hHAO1 [1]; [5]): 81 µM and 81.3 µM
IC50 (hHAO1 [1]; [6]): 57.1 to 117 µM
Ki (hHAO1 [1]; [7]): 37.7 to 44.3 µM
Vmax, Best-fit, 1 mM (hHAO1 [1]): 54.60 µM
Ki (hHAO1 [1]; [8]): 40.9 µM
LLEAT (Astex lipophilic ligand efficiency score) (hHAO1 [1]): 0.47 kcal/mol
inhibition mode with respect to glycolate (hHAO1 [1]): competitive inhibition
fold increase in potency (hHAO1 [1]): 5 fold

Nc1c(C(=O)O)[nH]c(=O)[nH]c1=O [Compound 9]
IC50 (hHAO1 [1]; [5]): 93 µM and 93.3 µM
IC50 (hHAO1 [1]; [6]): 48.1 to 193 µM
Ki (hHAO1 [1]; [7]): 113 to 126 µM
Vmax, Best-fit, 1 mM (hHAO1 [1]): 56.25 µM
Ki (hHAO1 [1]; [8]): 119 µM
LLEAT (Astex lipophilic ligand efficiency score) (hHAO1 [1]): 0.71 kcal/mol
fold lower potency (hHAO1 [1]; relative to compound 12): 3 fold
fold increase in potency (hHAO1 [1]): more than 10 fold

Cn1cc(N)c(=O)n(C)c1=O [Compound 10]
IC50 (hHAO1 [1]; [5]): 60 µM and 59.8 µM
IC50 (hHAO1 [1]; [6]): 39.5 to 92 µM
Ki (hHAO1 [1]; [7]): 157 to 177 µM
Vmax, Best-fit, 1 mM (hHAO1 [1]): 56.47 µM
Ki (hHAO1 [1]; [8]): 167 µM
LLEAT (Astex lipophilic ligand efficiency score) (hHAO1 [1]): 0.77 kcal/mol
fold increase in potency (hHAO1 [1]): more than 10 fold

Cn1cc(N)c(=O)[nH]c1=O [Compound 11]
IC50 (hHAO1 [1]; [5]): 40 µM and 39.8 µM
IC50 (hHAO1 [1]; [6]): 22.8 to 71.1 µM
Ki (hHAO1 [1]; [7]): 219 to 248 µM
Vmax, Best-fit, 1 mM (hHAO1 [1]): 55.85 µM
Ki (hHAO1 [1]; [8]): 233 µM
LLEAT (Astex lipophilic ligand efficiency score) (hHAO1 [1]): 0.88 kcal/mol
fold increase in potency (hHAO1 [1]): more than 10 fold

CC1=NC(=O)NC(=O)C1N (centres unmarked) [Compound 12]
IC50 (hHAO1 [1]; [5]): 27 µM and 27.4 µM
IC50 (hHAO1 [1]; [6]): 19.9 to 38 µM
Ki (hHAO1 [1]; [7]): 141 to 156 µM
Vmax, Best-fit, 1 mM (hHAO1 [1]): 54.05 µM
Ki (hHAO1 [1]; [8]): 148 µM
LLEAT (Astex lipophilic ligand efficiency score) (hHAO1 [1]): 0.89 kcal/mol
fold increase in potency (hHAO1 [1]): more than 10 fold

O=C(Nc1cccnc1)N1CCN(c2ccccc2O)CC1 [Compound 13]
IC50 (hHAO1 [1]; [5]): 44 µM and 43.8 µM
IC50 (hHAO1 [1]; [6]): 27.4 to 71.4 µM
Ki (hHAO1 [1]; [7]): 59.1 to 82.9 µM
Vmax, Best-fit, 1 mM (hHAO1 [1]): 27.28 µM
fold increase in Km (hHAO1 [1]; [9]): up to 4 fold
Ki (hHAO1 [1]; [8]): 69.7 µM
LLEAT (Astex lipophilic ligand efficiency score) (hHAO1 [1]): 0.30 kcal/mol
inhibition mode with respect to glycolate (hHAO1 [1]): mixed model inhibition
95% CI α (hHAO1 [1]): 7.84–27.32
α (Best-fit) (hHAO1 [1]): 13.27

Cc1cc(NC(=O)N2CCN(c3cccc(O)c3)CC2)no1 [Compound 14]
IC50 (hHAO1 [1]; [5]): 158 µM
IC50 (hHAO1 [1]; [6]): 100 to 256 µM
Ki (hHAO1 [1]; [7]): 83.1 to 119 µM
Vmax, Best-fit, 1 mM (hHAO1 [1]): 43.12 µM
fold increase in Km (hHAO1 [1]; [9]): up to 4.9 fold
fold reduction in Vmax (hHAO1 [1]; [9]): up to 1.7 fold
Ki (hHAO1 [1]; [8]): 98.9 µM
LLEAT (Astex lipophilic ligand efficiency score) (hHAO1 [1]): 0.25 kcal/mol
inhibition mode with respect to glycolate (hHAO1 [1]): mixed model inhibition
95% CI α (hHAO1 [1]): 9.41–59.28
α (Best-fit) (hHAO1 [1]): 18 and 18.4

Cn1nc(C(N)=O)c2ccccc21 [Fragment 1]
IC50 (hHAO1 [1]; [5]): 420 µM

O=C(C1CC1)N1CCN(c2ccc(F)cc2)CC1 [Fragment 3]
inhibition at 1000 µM (hHAO1 [1]; 1 mM fragment): 2%
inhibition at 10000 µM (hHAO1 [1]; 10 mM fragment): 19%

O=C(O)CO [glycolate]
Km (hHAO1 [4]): 74.5 µM
Km (hHAO1 [1]; read-out: Km (substrate)): 18.9 ± 0.8 µM
